Structures can show the parent of a compound that is named as a salt.
What was measured:
[1] = molecular target: cGMP-inhibited 3',5'-cyclic phosphodiesterase 3A (Homo sapiens, UniProt Q14432); test: Inhibition of full-length recombinant human PDE3A using [3H]-cGMP as substrate incubated for 10 mins by SPA assay
[2] = molecular target: 3',5'-cyclic-AMP phosphodiesterase 4D (Homo sapiens, UniProt Q08499); test: Inhibition of his-tagged recombinant human PDE4D catalytic domain (T86 to S413 residues) expressed in Escherichia coli BL21(DE3) using [3H]-cAMP as substrate incubated for 10 mins by SPA assay
Sequence of 3',5'-cyclic-AMP phosphodiesterase 4D (Q08499 whole entry, the tested form may be a part): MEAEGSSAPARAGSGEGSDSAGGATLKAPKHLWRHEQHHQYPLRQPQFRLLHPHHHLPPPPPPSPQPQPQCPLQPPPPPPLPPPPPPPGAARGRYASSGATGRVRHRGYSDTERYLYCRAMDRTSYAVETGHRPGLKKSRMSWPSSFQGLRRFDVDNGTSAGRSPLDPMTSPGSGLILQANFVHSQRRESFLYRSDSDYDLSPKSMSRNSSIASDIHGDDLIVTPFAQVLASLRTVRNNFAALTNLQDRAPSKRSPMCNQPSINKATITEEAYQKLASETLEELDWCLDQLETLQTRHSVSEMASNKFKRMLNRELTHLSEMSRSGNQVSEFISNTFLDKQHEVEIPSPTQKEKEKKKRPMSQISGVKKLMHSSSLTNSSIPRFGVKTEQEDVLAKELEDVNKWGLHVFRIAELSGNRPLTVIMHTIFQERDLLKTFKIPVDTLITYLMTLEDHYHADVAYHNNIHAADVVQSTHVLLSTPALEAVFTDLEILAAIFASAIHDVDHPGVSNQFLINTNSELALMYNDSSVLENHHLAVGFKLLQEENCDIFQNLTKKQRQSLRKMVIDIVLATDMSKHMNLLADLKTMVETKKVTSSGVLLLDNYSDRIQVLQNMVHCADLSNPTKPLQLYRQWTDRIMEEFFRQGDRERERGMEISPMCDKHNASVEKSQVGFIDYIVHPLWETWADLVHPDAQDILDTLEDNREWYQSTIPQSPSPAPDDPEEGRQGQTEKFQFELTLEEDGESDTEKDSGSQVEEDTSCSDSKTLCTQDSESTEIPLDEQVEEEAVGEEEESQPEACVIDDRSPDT

[3] = molecular target: cGMP-specific 3',5'-cyclic phosphodiesterase (Homo sapiens, UniProt O76074); test: Inhibition of his-tagged recombinant human PDE5A catalytic domain (E535 to Q860 residues) expressed in Escherichia coli BL21(DE3) using [3H]-cGMP as substrate incubated for 10 mins by SPA assay
[4] = molecular target: Cone cGMP-specific 3',5'-cyclic phosphodiesterase subunit alpha' (Homo sapiens, UniProt P51160); test: Inhibition of full-length recombinant human PDE6C using [3H]-cGMP as substrate incubated for 10 mins by SPA assay
[5] = molecular target: High affinity 3',5'-cyclic-AMP phosphodiesterase 7A (Homo sapiens, UniProt Q13946); test: Inhibition of his-tagged recombinant human PDE7A catalytic domain (S130 to S482 residues) expressed in Escherichia coli BL21(DE3) using [3H]-cAMP as substrate incubated for 10 mins by SPA assay
Sequence of High affinity 3',5'-cyclic-AMP phosphodiesterase 7A (Q13946 whole entry, the tested form may be a part): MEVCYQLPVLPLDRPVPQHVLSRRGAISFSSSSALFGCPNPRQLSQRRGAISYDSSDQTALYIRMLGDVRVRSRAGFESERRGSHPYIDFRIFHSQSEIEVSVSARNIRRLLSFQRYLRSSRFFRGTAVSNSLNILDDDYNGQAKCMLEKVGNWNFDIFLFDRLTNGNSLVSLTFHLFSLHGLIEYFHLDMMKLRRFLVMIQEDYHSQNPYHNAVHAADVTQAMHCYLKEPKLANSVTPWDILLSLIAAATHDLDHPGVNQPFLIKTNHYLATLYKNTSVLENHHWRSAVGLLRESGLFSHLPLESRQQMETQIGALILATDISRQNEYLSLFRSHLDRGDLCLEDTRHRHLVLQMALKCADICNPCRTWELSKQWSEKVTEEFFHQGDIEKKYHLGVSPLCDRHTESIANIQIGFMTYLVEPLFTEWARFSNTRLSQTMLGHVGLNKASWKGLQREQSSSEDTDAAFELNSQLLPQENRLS

[6] = molecular target: High affinity cAMP-specific and IBMX-insensitive 3',5'-cyclic phosphodiesterase 8A (Homo sapiens, UniProt O60658); test: Inhibition of full-length recombinant human PDE8A using [3H]-cAMP as substrate incubated for 10 mins by SPA assay
Sequence of High affinity cAMP-specific and IBMX-insensitive 3',5'-cyclic phosphodiesterase 8A (O60658 whole entry, the tested form may be a part): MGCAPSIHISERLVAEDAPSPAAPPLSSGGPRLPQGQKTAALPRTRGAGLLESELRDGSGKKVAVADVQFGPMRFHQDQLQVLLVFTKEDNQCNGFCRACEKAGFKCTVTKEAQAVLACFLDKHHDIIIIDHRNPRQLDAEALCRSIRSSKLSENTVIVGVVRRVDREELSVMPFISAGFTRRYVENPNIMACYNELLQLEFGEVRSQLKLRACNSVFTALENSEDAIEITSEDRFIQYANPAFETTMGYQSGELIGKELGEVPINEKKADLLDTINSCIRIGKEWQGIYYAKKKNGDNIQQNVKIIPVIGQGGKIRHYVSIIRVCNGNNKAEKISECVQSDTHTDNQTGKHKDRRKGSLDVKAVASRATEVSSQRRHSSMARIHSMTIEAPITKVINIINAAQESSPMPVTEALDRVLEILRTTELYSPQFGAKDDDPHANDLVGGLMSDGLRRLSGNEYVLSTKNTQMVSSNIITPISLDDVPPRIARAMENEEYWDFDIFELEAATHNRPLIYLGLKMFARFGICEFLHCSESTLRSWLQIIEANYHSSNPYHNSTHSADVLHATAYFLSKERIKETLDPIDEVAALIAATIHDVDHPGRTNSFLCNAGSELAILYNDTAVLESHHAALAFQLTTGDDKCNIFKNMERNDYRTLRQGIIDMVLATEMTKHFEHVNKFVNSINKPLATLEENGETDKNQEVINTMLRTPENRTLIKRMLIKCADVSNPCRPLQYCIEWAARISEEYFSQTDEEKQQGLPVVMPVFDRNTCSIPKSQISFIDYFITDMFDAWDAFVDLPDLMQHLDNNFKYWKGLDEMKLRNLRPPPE

[7] = molecular target: High affinity cGMP-specific 3',5'-cyclic phosphodiesterase 9A (Homo sapiens, UniProt O76083); test: Inhibition of his-tagged recombinant human PDE9A catalytic domain (P181 to K506 residues) expressed in Escherichia coli BL21(DE3) using [3H]-cGMP as substrate incubated for 10 mins by SPA assay
Sequence of High affinity cGMP-specific 3',5'-cyclic phosphodiesterase 9A (O76083 whole entry, the tested form may be a part): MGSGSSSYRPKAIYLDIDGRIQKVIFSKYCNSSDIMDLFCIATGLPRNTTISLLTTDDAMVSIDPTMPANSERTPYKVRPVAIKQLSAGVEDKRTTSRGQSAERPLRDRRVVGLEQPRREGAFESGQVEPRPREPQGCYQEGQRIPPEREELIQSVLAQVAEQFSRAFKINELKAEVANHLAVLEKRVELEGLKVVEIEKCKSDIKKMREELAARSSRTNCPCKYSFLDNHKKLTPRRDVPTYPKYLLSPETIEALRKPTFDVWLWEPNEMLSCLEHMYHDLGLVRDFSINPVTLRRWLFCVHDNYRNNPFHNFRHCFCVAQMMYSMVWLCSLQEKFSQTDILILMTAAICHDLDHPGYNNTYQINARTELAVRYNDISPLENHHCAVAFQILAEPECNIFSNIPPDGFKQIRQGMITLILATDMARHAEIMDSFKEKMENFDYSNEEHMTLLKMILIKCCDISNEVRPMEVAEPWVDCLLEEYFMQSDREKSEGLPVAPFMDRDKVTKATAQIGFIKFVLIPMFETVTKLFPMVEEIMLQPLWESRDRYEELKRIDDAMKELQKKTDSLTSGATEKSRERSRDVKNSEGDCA

[8] = molecular target: cAMP and cAMP-inhibited cGMP 3',5'-cyclic phosphodiesterase 10A (Homo sapiens, UniProt Q9Y233); test: Inhibition of his-tagged recombinant human PDE10A catalytic domain (S439 to A766 residues) expressed in Escherichia coli BL21(DE3) using [3H]-cAMP as substrate incubated for 10 mins by SPA assay
Sequence of cAMP and cAMP-inhibited cGMP 3',5'-cyclic phosphodiesterase 10A (Q9Y233 whole entry, the tested form may be a part): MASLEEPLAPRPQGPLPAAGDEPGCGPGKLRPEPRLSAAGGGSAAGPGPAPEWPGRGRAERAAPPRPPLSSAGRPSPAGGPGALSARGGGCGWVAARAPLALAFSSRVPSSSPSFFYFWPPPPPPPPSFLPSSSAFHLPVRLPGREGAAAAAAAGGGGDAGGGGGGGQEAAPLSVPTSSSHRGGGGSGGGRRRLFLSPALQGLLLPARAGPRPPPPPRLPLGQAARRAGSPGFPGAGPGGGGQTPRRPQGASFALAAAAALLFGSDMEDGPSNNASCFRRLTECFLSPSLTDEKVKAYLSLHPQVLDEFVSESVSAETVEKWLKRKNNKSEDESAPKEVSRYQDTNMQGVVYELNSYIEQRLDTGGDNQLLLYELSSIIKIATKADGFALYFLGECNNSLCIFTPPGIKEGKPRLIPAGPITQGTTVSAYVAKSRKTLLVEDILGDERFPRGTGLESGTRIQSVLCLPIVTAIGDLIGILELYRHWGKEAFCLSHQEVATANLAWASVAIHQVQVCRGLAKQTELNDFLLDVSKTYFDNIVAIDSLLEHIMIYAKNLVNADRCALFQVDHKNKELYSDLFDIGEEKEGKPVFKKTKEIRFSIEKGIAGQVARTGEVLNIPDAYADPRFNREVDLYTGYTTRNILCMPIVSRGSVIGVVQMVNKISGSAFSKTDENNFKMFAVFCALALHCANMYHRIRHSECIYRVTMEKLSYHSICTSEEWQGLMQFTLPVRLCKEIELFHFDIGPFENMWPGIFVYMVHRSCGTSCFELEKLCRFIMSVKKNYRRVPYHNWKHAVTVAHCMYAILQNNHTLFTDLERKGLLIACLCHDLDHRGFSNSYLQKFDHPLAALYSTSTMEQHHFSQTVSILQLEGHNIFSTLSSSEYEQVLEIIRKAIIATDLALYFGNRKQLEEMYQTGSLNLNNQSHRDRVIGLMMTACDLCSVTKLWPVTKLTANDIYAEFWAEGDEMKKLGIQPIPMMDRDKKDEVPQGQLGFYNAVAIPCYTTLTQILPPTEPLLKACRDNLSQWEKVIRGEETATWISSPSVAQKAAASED

[9] = molecular target: Dual 3',5'-cyclic-AMP and -GMP phosphodiesterase 11A (Homo sapiens, UniProt Q9HCR9); test: Inhibition of full-length recombinant human PDE11A using [3H]-cAMP as substrate incubated for 10 mins by SPA assay
[10] = molecular target: T1, Dual specificity calcium/calmodulin-dependent 3',5'-cyclic nucleotide phosphodiesterase 1A (Homo sapiens, UniProt P54750); test: Inhibition of full-length recombinant human PDE1A using [3H]-cGMP as substrate at 1 uM incubated for 10 mins by SPA assay relative to control
T1 sequence (P54750 whole entry): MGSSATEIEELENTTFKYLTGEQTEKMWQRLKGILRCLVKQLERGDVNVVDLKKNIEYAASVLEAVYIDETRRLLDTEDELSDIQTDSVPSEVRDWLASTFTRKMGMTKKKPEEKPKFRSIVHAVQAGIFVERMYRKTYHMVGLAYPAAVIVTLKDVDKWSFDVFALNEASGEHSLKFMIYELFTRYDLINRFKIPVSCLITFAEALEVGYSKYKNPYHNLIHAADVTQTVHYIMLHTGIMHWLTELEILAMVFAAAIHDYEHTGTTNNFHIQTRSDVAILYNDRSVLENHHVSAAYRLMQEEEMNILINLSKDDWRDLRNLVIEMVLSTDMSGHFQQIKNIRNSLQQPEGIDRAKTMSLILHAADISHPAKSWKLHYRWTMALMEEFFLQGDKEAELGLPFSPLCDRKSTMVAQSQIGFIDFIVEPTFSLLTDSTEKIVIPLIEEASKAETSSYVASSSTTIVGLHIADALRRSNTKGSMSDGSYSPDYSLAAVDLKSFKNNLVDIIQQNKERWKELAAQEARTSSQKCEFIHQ

[11] = molecular target: T2, cGMP-dependent 3',5'-cyclic phosphodiesterase (Homo sapiens, UniProt O00408); test: Inhibition of full-length recombinant human PDE2A using [3H]-cGMP as substrate at 1 uM incubated for 10 mins by SPA assay relative to control
[12] = species: Homo sapiens; test: Selectivity index, ratio of IC50 for full-length recombinant human PDE6C using [3H]-cGMP as substrate to IC50 for his-tagged recombinant human PDE4D catalytic domain (T86 to S413 residues) expressed in Escherichia coli BL21(DE3) using [3H]-cAMP as substrate
[13] = molecular target: T1, Dual specificity calcium/calmodulin-dependent 3',5'-cyclic nucleotide phosphodiesterase 1A; test: Inhibition of full-length recombinant human PDE1A using [3H]-cGMP as substrate incubated for 10 mins by SPA assay
[14] = molecular target: T2, cGMP-dependent 3',5'-cyclic phosphodiesterase; test: Inhibition of full-length recombinant human PDE2A using [3H]-cGMP as substrate incubated for 10 mins by SPA assay

| SMILES | IC50 [1] | IC50 [2] | IC50 [3] | IC50 [5] | IC50 [6] | IC50 [7] | IC50 [8] | IC50 [9] | other results |
| --- | --- | --- | --- | --- | --- | --- | --- | --- | --- |
| COc1ccc(CNc2nc(N(CCO)CCO)nc3c2cnn3C(C)C)cc1 | > 1000 nM | 2250 nM | 120 nM | > 10000 nM | > 10000 nM | > 10000 nM | > 1000 nM | > 10000 nM | IC50 [4]: 160 nM; inhibition [10]: 59.6%; inhibition [11]: 67.9%; Ratio IC50 [12]: 1 |
| COc1ccc(CNc2nc(N(CCO)CCO)nc3c2[nH]c(=O)n3C(C)C)cc1 | > 10000 nM | 1780 nM | 40 nM | > 10000 nM | > 10000 nM | > 10000 nM | > 10000 nM | > 10000 nM | IC50 [13]: > 10000 nM; IC50 [14]: > 1000 nM; IC50 [4]: 90 nM; Ratio IC50 [12]: 2 |
| Cn1cc(-c2ccncc2)c(-c2ccc(OCc3ccc4ccccc4n3)cc2)n1 [MARDEPODECT] |  | 1740 nM |  |  |  |  |  |  |  |
| CCOc1ccc(Cc2nccc3cc(OCC)c(OCC)cc23)cc1OCC [ETHAVERINE HYDROCHLORIDE] |  | 410 nM |  |  |  |  |  |  |  |
| COc1ccc(CNc2nc(N(CCO)CCO)nc3c2ncn3C(C)C)cc1 | > 10000 nM | 420 nM | 230 nM | > 10000 nM | > 10000 nM | > 10000 nM | 1290 nM | > 1000 nM | IC50 [13]: > 1000 nM; IC50 [14]: > 1000 nM |
| COc1ccc2c(c1)CC[C@H]1[C@H]3CC[C@H](NCCCCCCN4C(=O)C=CC4=O)[C@@]3(C)CC[C@@H]21 |  | 940 nM |  |  |  |  |  |  |  |

Second part, led by results:

| IC50 [1] | IC50 [2] | IC50 [3] | IC50 [5] | IC50 [6] | IC50 [7] | IC50 [8] | IC50 [9] | SMILES | other results |
| --- | --- | --- | --- | --- | --- | --- | --- | --- | --- |
|  | 1000 nM |  |  |  |  |  |  | O=C(O)c1ccc2c(c1)nc(Nc1cccc(Cl)c1)c1ccncc12 [SILMITASERTIB] |  |
|  | 1770 nM |  |  |  |  |  |  | COc1ncc(-c2ccc3nccc(-c4ccnnc4)c3c2)cc1NS(=O)(=O)c1ccc(F)cc1F [OMIPALISIB] |  |
|  | 2460 nM |  |  |  |  |  |  | CCOc1ccn(-c2ccc(F)cc2)c(=O)c1C(=O)Nc1ccc(Oc2ccnc(N)c2Cl)c(F)c1 [BMS-777607] |  |
